Results as given in patent US20220380341A1, “INHIBITORS OF HIV-1 NEF FOR THE TREATMENT OF HIV DISEASE” (priority 2018, published 2022).
Like-named read-outs stand apart in the source and are kept apart here.

Tests used:
HIV-1NL4-3 = experiment: HIV-1 infectivity assay in TZM-bl reporter cell line (LTR-luciferase, 48 h); type: cell-based; details: for inhibition at 1 µM: Human immunodeficiency virus 1, TZM-bl
Outline: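 Nef-dependent infectivity in TZM-bl cells: HIV-1NL4-3 infection with 1 μM compound, luciferase read at 48 h, normalized against DMSO wild-type and Nef-defective controls. Compound cytotoxicity in uninfected cells measured by Cell Titer Blue.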

TZM-bl cell line = type: cell-based
Outline: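 TZM-bl cells (HIV-1 LTR-luciferase) infected with HIV-1NL4-3 with compound at 1 μM; luciferase read 48 h later. Percent inhibition normalized to DMSO wild-type infection (0%) and Nef-defective HIV-1 infection (100% of Nef-dependent effect). Viability in uninfected TZM-bl cells by Cell Titer Blue.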

HIV-1 NefNL4-3 = HIV-1 NefNL4-3 (Human immunodeficiency virus type 1 group M subtype B, UniProt P03406, A33V/T15A/T51N/V11I); experiment: Surface plasmon resonance binding to recombinant full-length Nef (NL4-3); details: for RU30/RUNef (extent of binding): response units at 30 μM relative to Nef immobilized on the SPR chip
HIV-1 NL4-3 = experiment: HIV-1 replication in normal donor PBMCs (p24 Gag AlphaLISA); type: cell-based; details: Table 1, 4 days; for HIV Replication PBMC IC50 vs. HIV NL4-3: words (Not active, Borderline) where no bound is given
Procedure: FIG. 4. Inhibition of HIV-1 replication by compounds disclosed herein in PBMCs. Donor PBMCs were infected with HIV-1 in the presence of inhibitor concentrations ranging from 1 to 1,000 nM or the DMSO carrier solvent as a negative control (0.1% DMSO final). Replication was assessed by p24 Gag AlphaLISA (Perkin Elmer) […]. Each donor was also infected with Nef-defective HIV-1 to establish the baseline for Nef-dependent enhancement of replication in each culture. Cytotoxicity was assessed in uninfected PBMCs over the same incubation period using the CellTiter-Blue assay (Promega). Data were fit by non-linear regression analysis (GraphPad Prism v.7.04) to determine the IC50 and CC50 values shown.
The tables also show data for HIV-1 Replication in normal donor peripheral blood mononuclear cells (PBMCs), which is assay is conducted as follows:
Non-HLA-typed buffy coats (Source: Pittsburgh Central Blood Bank, #E3755) are received and processed within 24 hours of blood donation. PBMCs are isolated via rocking for RBC separation following 1:1 dilution with PBS, followed by Ficoll gradient centrifugation. The lymphocyte fraction is removed and washed several times for a final concentration of ˜150-300×10^6 cells per donor. Cells are activated for 3 days with 1-5 μg/mL PHA (Sigma) and 50 U/mL IL-2. Cells are plated at 750,000 cells/ml and viability is checked at day 3 using the Cell Titer Blue assay (Promega). If cells are >90% viable, then they are infected with HIV-1 NL4-3, wild-type or Δ-Nef mutant (input typically 30-500 pg/mL p24 capsid equivalents) in the presence or absence of Nef inhibitor analogs. IL-2 is included in the media at the time of infection. After 4 days, cells are lysed with 1% Triton X-100 for 1.5 h, checked for viability via Cell Titer Blue, and frozen/stored at −20° C. HIV-1 replication is assessed with a high-sensitivity HIV-1 p24 AlphaLISA assay (Perkin Elmer) in ½-volume 96-well plates, using one-half of the recommended assay volumes for all reagents (including samples). Assays are read on the BioTek Cytation5 instrument; readout is in AlphaUnits and replication in p24 pg/mL is determined using an HIV-1 p24 capsid protein standard included in the Alpha kit.

[1] = 1.0 μM, TZM-bl reporter cell line, Table 4, read-out: % Infectivity Inhibition
[2] = 48 h, Table 1, TZM-bl cells, 1 μM, 48 h, 100% = Nef-defective HIV-1, read-out: HIV-1 Infectivity % Inhibition Norm. to Δ-Nef @ 1 μM
[3] = KD, M, Table 4, SPR fit 2-step induced fit, KD = koff/kon × koff2/(koff2 + kon2)
[4] = Nef NL4-3 Binding, SPR 2-state fitting KD, Table 1, 2-step induced-fit model
[5] = Table 4, 2-step induced fit, T = 1/koff2
[6] = read-out: Nef NL4-3 Binding, SPR 1:1 or 2-site fitting KD2, Table 1, 2-site fit, second component

| SMILES | inhibition at 1 µM (HIV-1NL4-3; [1]) [%] | inhibition at 1 µM (HIV-1NL4-3; [2]) [%] | % Cell Viability (TZM-bl cell line; human, 1 μM) [%] | Percent Viability @ 1 μM (TZM-bl cells) (TZM-bl cell line; human, 1 μM) [%] | RU30/RUNef (extent of binding) (HIV-1 NefNL4-3) | HIV Replication PBMC IC50 vs. HIV NL4-3 (HIV-1 NL4-3) | Kd (HIV-1 NefNL4-3) [M] | Kd (HIV-1 NefNL4-3; [3]) [M] | Kd (HIV-1 NefNL4-3; [4]) [M] | T, minutes (residence time) (HIV-1 NefNL4-3; [5]) | Kd (HIV-1 NefNL4-3; [6]) [M] | other results |
| --- | --- | --- | --- | --- | --- | --- | --- | --- | --- | --- | --- | --- |
| Oc1c(CCc2ccc(F)cc2)c(-c2ccc(C(F)(F)F)cc2)nn1-c1nc2ccc(Cl)cc2[nH]1 [Compound I-161, 1-(6-chloro-1H-1,3-benzodiazol-2-yl)-4-[2-(4-fluorophenyl)ethyl]-3-[4-(trifluoromethyl)phenyl]-1H-pyrazol-5-ol] | 38.7 | 38.7 | 89.9 | 89.9 | 1.44E- 02 | Not active |  |  |  |  |  |  |
| Oc1c(CC2CCCC2)c(-c2ccc(C(F)(F)F)cc2)nn1-c1nc2ccccc2[nH]1 [Compound I-123, 1-(1H-1,3-benzodiazol-2-yl)-4-(cyclopentylmethyl)-3-[4-(trifluoromethyl)phenyl]-1H-pyrazol-5-ol] | 96.1 | 96.1 | 85.3 | 85.3 | 2.57E- 02 | Not active | 8.88e-08 | 9.36e-11 | 9.36e-11 | 3.79E + 05 minutes | 8.78e-05 |  |
| Oc1c(CCc2ccc(F)cc2)c(-c2cccc(F)c2)nn1-c1nc2ccccc2[nH]1 [Compound I-110, 1-(1H-1,3-benzodiazol-2-yl)-3-(3-fluorophenyl)-4-[2-(4-fluorophenyl)ethyl]-1H-pyrazol-5-ol] |  | 84.9 |  | 88.4 |  | Not active |  |  | 3.02e-08 |  |  | Kd (HIV-1 NefNL4-3; Nef NL4-3 Binding, SPR 1:1 or 2-site fitting KD2, Table 1, 2-site fit, second component): 2.14e-06 M |
| Oc1c(CCc2ccc(F)cc2)c(-c2ccc(C(F)(F)F)cn2)nn1-c1nc2ccccc2[nH]1 [Compound I-119, 1-(1H-1,3-benzodiazol-2-yl)-4-[2-(4-fluorophenyl)ethyl]-3-[5-(trifluoromethyl)pyridin-2-yl]-1H-pyrazol-5-ol] | 80.7 | 80.7 | 77.1 | 77.1 | 7.52E- 03 | Not active | 1.89e-11 |  |  |  | 6.83e-06 |  |
| CC(C)(C)OC(=O)N1CCC(c2nn(-c3nc4ccccc4[nH]3)c(O)c2CCc2ccc(F)cc2)CC1 [Compound I-202, tert-butyl 4-[1-(1H-1,3-benzodiazol-2-yl)-4-[2-(4-fluorophenyl)ethyl]-5-hydroxy-1H-pyrazol-3-yl]piperidine-1-carboxylate] | 100 | 105 | 79.2 | 79.2 | 4.09E- 03 | Not active |  | 6.05e-12 | 2.22e-06 | 6.36E + 06 minutes |  |  |
| Oc1c(CCc2ccc(F)cc2)c(-c2ccc3c(c2)OC(F)(F)O3)nn1-c1nc2ccccc2[nH]1 [Compound I-145, 1-(1H-1,3-benzodiazol-2-yl)-3-(2,2-difluoro-2H-1,3-benzodioxol-5-yl)-4-[2-(4-fluorophenyl)ethyl]-1H-pyrazol-5-ol] | 0 | -11.7 | 98.2 | 98.2 | 4.38E- 03 | Not active |  |  |  |  |  |  |
| CC(C)(C)OC(=O)N1CCCCC1Cc1nn(-c2nc3ccccc3[nH]2)c(O)c1CCc1ccc(F)cc1 (stereo not shown) [Compound I-207, tert-butyl 2-{[1-(1H-1,3-benzodiazol-2-yl)-4-[2-(4-fluorophenyl)ethyl]-5-hydroxy-1H-pyrazol-3-yl]methyl}piperidine-1-carboxylate] | 0 | -9.4 | 99.3 | 99.3 | 4.14E- 03 |  | 1.49e-09 |  |  |  | 8.09e-07 | IC50 (HIV-1 NL4-3; Human immunodeficiency virus 1, NL43, PBMC, 96 h): ≥ 1000 nM |
| CC(C)(C)OC(=O)N1CCC(c2nn(-c3nc4ccc(Cl)cc4[nH]3)c(O)c2CCc2ccc(F)cc2)CC1 [Compound I-216, tert-butyl 4-[1-(5-chloro-1H-1,3-benzodiazol-2-yl)-4-[2-(4-fluorophenyl)ethyl]-5-hydroxy-1H-pyrazol-3-yl]piperidine-1-carboxylate] | 100 | 176 | 87.1 | 87.1 | 1.60E- 02 | Not active | 1.24e-07 | 8.71e-12 | 8.71e-12 | 4.71E + 05 minutes | 8.29e-07 |  |
| Oc1c(CCc2ccc(F)cc2)c(-c2ccc(C(F)(F)F)cn2)nn1-c1nc2cc(F)ccc2[nH]1 [Compound I-167, 1-(5-fluoro-1H-1,3-benzodiazol-2-yl)-4-[2-(4-fluorophenyl)ethyl]-3-[5-(trifluoromethyl)pyridin-2-yl]-1H-pyrazol-5-ol] | 52.1 | 52.1 | 81.2 | 81.2 | 1.11E- 02 | Not active | 2.99e-07 | 2.02e-09 | 2.02e-09 | 5.05E + 03 minutes | 1.74e-06 |  |
| O=S(=O)(C1CCCCC1)N1CCC(c2nn(-c3nc4ccccc4[nH]3)c(O)c2CCc2ccc(F)cc2)CC1 [Compound I-747, 1-(1H-1,3-benzodiazo1-2-y1)-3-[1-(cyclohexanesulfonyl)piperidin-4-yl]-4-[2-(4-fluorophenyl)ethyl]-1H-pyrazol-5-ol] |  |  |  |  |  |  |  |  |  |  |  | HIV Infectivity % Control @ 1 μM (HIV-1NL4-3; 1 μM, TZM-bl reporter cells, % of control): 30.9%; HIV-1 Infectivity % Inhibition Norm. to Δ-Nef @ 1 μM (HIV-1NL4-3; 1 μM, TZM-bl, normalized: DMSO wild-type HIV-1 = 0%, Nef-defective HIV-1 = 100%): 179.3%; HIV-1 Infectivity % Inhibition Norm. to Δ-Nef @ 1 μM (HIV-1NL4-3; Table 1, TZM-bl cells, 1 μM, 48 h, 100% = Nef-defective HIV-1): 179.3%; Percent Viability @ 1 μM (TZM-bl cells) (TZM-bl cell line): 86.9%; Kd (HIV-1 NefNL4-3; KD, two-step induced-fit model, Reichert SPR, Table 3, read-out: Reichert SPR Nef NL43 (M) two-step fitting): 0.000257 M; Kd (HIV-1 NefNL4-3; Table 1, 1:1 Langmuir fit where the KD2 cell says '1 to 1 fitting', else 2-site fit, read-out: Nef NL4-3 Binding, SPR 1:1 or 2-site fitting KD1): 8.91e-08 M; Kd (HIV-1 NefNL4-3; Table 1, 2-site fit, second component, read-out: Nef NL4-3 Binding, SPR 1:1 or 2-site fitting KD2): 1.56e-06 M; Kd (HIV-1 NefNL4-3; Table 1, 2-step induced-fit model, read-out: Nef NL4-3 Binding, SPR 2-state fitting KD): 0.000257 M |
| Cn1cccc(CCc2c(-c3ccc(C(F)(F)F)cc3)nn(-c3nc4ccccc4[nH]3)c2O)c1=O [Compound I-137, 3-{2-[1-(1H-1,3-benzodiazol-2-yl)-5-hydroxy-3-[4-(trifluoromethyl)phenyl]-1H-pyrazol-4-yl]ethyl}-1-methyl-1,2-dihydropyridin-2-one] | 0 | -1.4 | 99.4 | 99.4 | 1.02E- 03 |  | 2.43e-07 |  |  |  |  | Kd (HIV-1 NefNL4-3; KD, M, Table 4, SPR fit 1:1 Langmuir, KD = koff/kon): 2.43e-07 M; T, minutes (residence time) (HIV-1 NefNL4-3; Table 4, 1:1 Langmuir fit, T = 1/koff): 5.36E + 00 minutes |
| O=C(O)c1ccc(-c2nn(-c3nc4ccccc4[nH]3)c(O)c2CCc2ccc(F)cc2)cc1 [Compound I-1101, 4-[1-(1H-1,3-benzodiazol-2-yl)-4-[2-(4-fluorophenyl)ethyl]-5-hydroxy-1H-pyrazol-3-yl]benzoic acid] |  | -9.9 |  | 99.3 |  |  | 3.76e-07 |  |  |  |  |  |
